Data taken from US11166461B2, “Methods of controlling or preventing infestation of soybean plants by phytopathogenic microorganisms” (SYNGENTA PARTICIPATIONS AG, priority 2017, dated 2021).

Experiments:
[1] = test system: Fusarium virguliforme; assay: Seed treatments in the field against Sudden Death Syndrome (SDS) caused by Fusarium virguliforme, soybean field trial Clinton, Ill.; type: in vivo; settings: seed treatment 0.15 mg ai/seed plus base treatment; for % efficacy based on disease incidence / % disease incidence: 107 days after planting; for % efficacy based on disease incidence: 100 − (100/(untreated/treated)); for % disease incidence: infected plants per plot; for Yield (bushel/acre) / % yield increase: 150 days after planting; for Yield (bushel/acre): full plot harvest; for % yield increase: versus untreated
Procedure: Disease assessment was done visually 29 DAS, by classifying the plants according to a disease severity scale for SDS modified from […] et al. (2011)* and J. Bond using classes from 0 to 4. The number of plants in each class were assessed. […] SDS Index=n1×0+n2×1+n3×2+n4×3+n5×4. The SDS index is normalized to give an index of 100 for the untreated, infected control ([…]) and by calculating the normalized index for all treatments relative to the […]. Shoot dry weight and shoot size was determined 29 […]., Ruberti D., Giorda L., Pioli R., Luque […]., Aoki T., & O'Donnell K.: Comparison of inoculation methods for characterizing relative aggressiveness of two soybean sudden-death syndrome pathogens, Fusarium virguliforme and F. tucumaniae. Tropical Plant Pathology, vol. 36, 3, 133-140, 2011 Effect of Different Seed Treatments in the Field Against Sudden Death Syndrome (SDS) Caused by Fusarium virguliforme A soybean field trial was carried out in Clinton, Ill., USA. This site had historically SDS occurrence reported. […] The disease occurred end of August and an assessment on disease incidence (counting of infected plants) was done Sep. 15, 2017. The yield of the grain data has been taken at the end of the season. [table] [table] [table]

[2] = test system: Fusarium virguliforme; assay: Seed treatments on soybean cv. Toliman infected with Fusarium virguliforme (growth chamber pot test); type: in vivo; settings: 29 DAS; for % Disease severity: SDS index normalized to 100 for untreated infected control; for % Infected plants: soybean cv. Toliman
Procedure: Effect of Different Seed Treatments on Soybean Cv. Toliman Infected with Fusarium virguliforme:
Fusarium virguliforme/Soybean
5×5 soybean seeds cv. Toliman were sown into plastic pots. A mixture of 50% vol. sand and 50% vol. sterilized field soil was used as substrate. A layer of F. virguliforme infected millet seeds was placed below the soybean seeds. The test was kept in a growth chamber at 25° C. with 14 h artificial light; plants were irrigated up to field capacity. For the last five cultivation days, plants were kept at 18° C. The number of infected plants was counted 29 Days After Sowing (DAS).
Disease assessment was done visually 29 DAS, by classifying the plants according to a disease severity scale for SDS modified from Scandiani et al. (2011)* and J. Bond using classes from 0 to 4. The number of plants in each class were assessed. This allows calculating an “SDS Index” by multiplying the number of plants in each class with the disease severity (0, 1, 2, 3 or 4) and adding the products for all classes. SDS Index=n1×0+n2×1+n3×2+n4×3+n5×4. The SDS index is normalized to give an index of 100 for the untreated, infected control (UTCINF) and by calculating the normalized index for all treatments relative to the UTCINF. Shoot dry weight and shoot size was determined 29 DAS. • *Scandiani M., Ruberti D., Giorda L., Pioli R., Luque A., Bottai B., Ivancovich J., Aoki T., & O'Donnell K.: Comparison of inoculation methods for characterizing relative aggressiveness of two soybean sudden-death syndrome pathogens, Fusarium virguliforme and F. tucumaniae. Tropical Plant Pathology, vol. 36, 3, 133-140, 2011 Effect of Different Seed Treatments in the Field Against Sudden Death Syndrome (SDS) Caused by Fusarium virguliforme

Compound: O=C(NCCc1ncc(C(F)(F)F)cc1Cl)c1ccccc1C(F)(F)F [Fluopyram, reference compound]
- yield increase (in words) [1]: did not increase the yield
- % efficacy based on disease incidence [1]: 58.33%
- % disease incidence [1]: 25.00 B %
- Yield (bushel/acre) [1]: 68.38 A bushel/acre
- % yield increase [1]: −3.74%

Compound: O=C(NC1CCC1c1ccc(F)cc1Cl)c1cccnc1C(F)(F)F (stereo not shown) [Compound 7]
- Shoot dry weight ([2]; seed treatment 10 g ai/100 kg): 4.09 g
- Shoot length in mm ([2]; seed treatment 10 g ai/100 kg): 565 mm
- % Disease severity ([2]; seed treatment 10 g ai/100 kg): 1%
- % Infected plants ([2]; seed treatment 10 g ai/100 kg): 4%
- Shoot dry weight ([2]; seed treatment 20 g ai/100 kg): 4.01 g
- Shoot length in mm ([2]; seed treatment 20 g ai/100 kg): 530 mm
- % Disease severity ([2]; seed treatment 20 g ai/100 kg): 0%
- % Infected plants ([2]; seed treatment 20 g ai/100 kg): 0%

Compound: O=C(NC1CCC1c1ccc(F)cc1Cl)c1ncccc1C(F)(F)F (stereo not shown) [Compound 4]
- Shoot dry weight ([2]; seed treatment 10 g ai/100 kg): 3.89 g
- Shoot length in mm ([2]; seed treatment 10 g ai/100 kg): 541 mm
- % Disease severity ([2]; seed treatment 10 g ai/100 kg): 5%
- % Infected plants ([2]; seed treatment 10 g ai/100 kg): 8%
- Shoot dry weight ([2]; seed treatment 20 g ai/100 kg): 3.77 g
- Shoot length in mm ([2]; seed treatment 20 g ai/100 kg): 526 mm
- % Disease severity ([2]; seed treatment 20 g ai/100 kg): 5%
- % Infected plants ([2]; seed treatment 20 g ai/100 kg): 8%

Compound: O=C(NC1CCC1c1ccc(Cl)cc1Cl)c1cccnc1C(F)(F)F (stereo not shown) [Compound 1]
- Shoot dry weight ([2]; seed treatment 10 g ai/100 kg): 3.57 g
- Shoot length in mm ([2]; seed treatment 10 g ai/100 kg): 505 mm
- % Disease severity ([2]; seed treatment 10 g ai/100 kg): 17%
- % Infected plants ([2]; seed treatment 10 g ai/100 kg): 28%
- Shoot dry weight ([2]; seed treatment 20 g ai/100 kg): 4.16 g
- Shoot length in mm ([2]; seed treatment 20 g ai/100 kg): 587 mm
- % Disease severity ([2]; seed treatment 20 g ai/100 kg): 0%
- % Infected plants ([2]; seed treatment 20 g ai/100 kg): 0%
- yield increase over the untreated check [1]: 8.11 bushels per acre
- % efficacy based on disease incidence [1]: 79.72%
- % disease incidence [1]: 12.17 B %
- Yield (bushel/acre) [1]: 79.15 A bushel/acre
- % yield increase [1]: 11.42%
